Experimental data: patent US11484601B2, “Targeting M2-like tumor-associated macrophages by using melittin-based proapoptotic peptide” (TWI[…]., priority 2018, dated 2022)

Legend:
[1] = tested on: 4T1-luciferase breast cancer cells; experiment: 4T1-luciferase tail vein metastaticity model in BALB/c mice; assay type: in vivo, mouse; conditions: 175 nmol/kg once every 3 days, 15 days after tail vein injection
Protocol: Additionally, 4T1-luciferase breast cancer cells (1×10^5) were injected into BALB/c mice through a tail vein in order to identify metastaticity of tumor cells. 3 days after the injection, 175 nmol/kg of each of PBS, dKLA, MEL and MEL-dKLA was injected into each group once every 3 days. 15 days after the cancer cell injection, D-luciferin as a substrate of luciferase enzyme was diluted to a concentration of 40 mg/ml, and then 100 μl thereof was administered to mice in an intraperitoneal administration mode, Then, reaction occurred for about 15 minutes. NightOwl (Berthold Technologies) was used in combination with photographs of mice to analyze the level of settlement and metastasis of cancer cells to the whole body and lungs.

[2] = tested on: RAW264.7 cells differentiated into M2 cells; experiment: XF24 Extracellular Flux metabolic measurement (OCR, ECAR); assay type: cell-based, mouse; conditions: 1 μM peptide, compared to PBS-treated group
Protocol: […] assay was performed to measure the effect of MEL-dKLA on the metabolic action of mitochondria.
More specifically, the metabolic action was measured using an XF24 Extracellular Flux analyzer (Agilent, CA, USA). RAW264.7 cells were differentiated into M2 cells which were inoculated into XF-24 plates (3×10^4 cells/well). The next day, in order to minimize the potential stress due to changes in the situation, 1 μM of each peptide was applied thereto. Then, the cells were incubated in a 37° C. incubator under 5% CO2 condition. […] Then, the oxygen consumption rate (OCR) and the extracellular acidification rate (ECAR) were measured in real time.
Further, OCR was measured at a time point corresponding to 12 times. The basal state was measured at a time point corresponding to 3 times. Then, ATP-connected respiration after oligomycin addition was measured at a time point corresponding to further 3 times. Then, the maximum respiration after FCCP addition was measured at a time point corresponding to further 3 times. Then, a point at which non-mitochondrial respiration occurred after addition of Rot/AA was measured at a time point corresponding to remaining 3 times. Thus, the mitochondria respiration ability was measured. ECAR indicating the glycolysis rate was measured at the same time points.

M2 macrophage = experiment: Annexin V-FITC / MitoTracker flow cytometry, M2 macrophage; assay type: cell-based, mouse; conditions: 0.8 μM peptide, 6 hours
Protocol: More specifically, the cells were stained with Annexin V-fluorescein isothiocyanate (FITC; BD Biosciences, CA, USA) and MitoTracker RedBOX (Invitrogen). The cells were inoculated at 5×10^5 cells/well, onto a 24-well plate. The next day, 0.8 μM peptide was applied thereto. In 1, 3 and 6 hours after the application, the cells were reacted with 250 nM MitoTracker for 1 hour in a serum-free culture solution. Thereafter, the cells were collected and reacted with Annexin V again. The reacted cells were measured with BD FACSCalibur, and were analyzed via FlowJo software (Treestar, Inc., CA, USA). MitoTracker could pass through protoplasmic membrane depending on the membrane charge and then accumulated within the mitochondria. In other words, staining may be identified in the mitochondria membrane of living cells, but staining may be difficult in cells where apoptosis occurs due to membrane disturbance.

[3] = tested on: mitochondria of M2-type macrophage; experiment: Confocal localisation of TMR-conjugated peptides in mitochondria; assay type: cell-based, mouse; conditions: 1 μM TMR-conjugated peptide, 2 hours; for presence in mitochondria by image measurement: MitoTracker green
Protocol: In order to identify the invasion and location of MEL-dKLA into the mitochondria of M2-type macrophage, those were identified using fluorescence microscopy via staining. Further, PASCAL 5 LSM image measurement was performed for quantitative analysis.
More specifically, RAW264.7 macrophage was differentiated into M2 which in turn was incubated together with 1 μM TMR-conjugated dKLA, MEL or MEL-dKLA for 2 hours. The peptides that were not conjugated thereto were washed off, and then the cells were stained with 250 nM MitoTracker green (Invitrogen) for 30 minutes. After the staining, the cells were stained for 10 minutes in PBS to which 4 μg/mL 4′6-diamidino-2-phenylidole (DAPI; Sigma-Aldrich, MO, USA) was added. The stained cells were measured with a laser scanning confocal microscope (Carl Zeiss, Germany). The location of MEL-dKLA in the mitochondria was measured with an LSMS image meter (Carl Zeiss).

LLC tumor cells = experiment: LLC lung cancer tumor model in C57BL/6 mice; assay type: in vivo, mouse; conditions: 175 nmol/kg intraperitoneally
Protocol: More specifically, C57BL/6 wild-type mice were purchased from DBL (Korea). LLC tumor cells were mixed with Matrigel (Corning, NY, USA) and then the mixture was injected into the right flank of mice (5×10^4 cells/mouse). Five days after tumor cell injection, the recombinant dKLA, MEL, and MEL-dKLA peptides were injected intraperitoneally thereto for 3 days for a total of three times (175 nmol/kg dosage/weight per each time). All tumor tissues were harvested 12 days after the injection. The animal experiment was approved by the Animal Management Committee of Kyunghee University [KHUASP(SE)-17-087]. The animals were managed via autonomous feeding of water and food under a 12-hour light/dark cycle environment without pathogens.

Row | Compound | metastaticity, luminescence of cancer cells throughout the whole body [1] | basal respiration (baseline OCR) [2] | cell death of M2 macrophage (Annexin V / MitoTracker) (M2 macrophage) | correlation with mitochondria [3] | presence in mitochondria by image measurement [3] | tumor size (LLC tumor cells) | tumor growth (LLC tumor cells; three times, compared to PBS control)
1 | CC[C@H](C)[C@H](NC(=O)CN)C(=O)NCC(=O)N[C@@H](C)C(=O)N[C@H](C(=O)N[C@@H](CC(C)C)C(=O)N[C@@H](CCCCN)C(=O)N[C@H](C(=O)N[C@@H](CC(C)C)C(=O)N[C@H](C(=O)N[C@H](C(=O)NCC(=O)N[C@@H](CC(C)C)C(=O)N1CCC[C@H]1C(=O)N[C@@H](C)C(=O)N[C@@H](CC(C)C)C(=O)N[C@H](C(=O)N[C@@H](CO)C(=O)N[C@@H](Cc1c[nH]c2ccccc12)C(=O)N[C@H](C(=O)N[C@@H](CCCCN)C(=O)N[C@@H](CCCNC(=N)N)C(=O)N[C@@H](CCCCN)C(=O)N[C@@H](CCCNC(=N)N)C(=O)N[C@@H](CCC(N)=O)C(=O)N[C@@H](CCC(N)=O)C(N)=O)[C@@H](C)CC)[C@@H](C)CC)[C@@H](C)O)[C@@H](C)O)C(C)C)C(C)C [MEL] | metastasis was reduced | no change in baseline OCR | no significant difference was found | did not have any association with mitochondria | could not be identified therein | significantly reduced | –
2 | d[KLAKLAKKLAKLAK] (D-amino acids) [dKLA, pro-apoptotic peptide KLA, used as control] | measured at a high level throughout the body | no change in baseline OCR | no significant difference was found | did not have any association with mitochondria | a small amount of dKLA was coupled to the cells | – | tumor steadily grew
